Tested on: E. coli
Experiment: Test Example 1: inducing E. coli CGC with N-acetyl-D-glucosamine and antibiotics in different ratios (K-B method, microscopy)
Format: cell-based

SMILES: CC(=O)N[C@@H]1[C@@H](O)[C@H](O)[C@@H](CO)O[C@H]1O [Compound (I), N-acetyl-D-glucosamine]
- CGC formation (Compound (I) 10 mg, aminoglycoside (kanamycin, gentamycin) 50 mg): − (if cell length was not greater than 50 μm and cell number was within the range from 0 to 4 in each visual field, it was deemed as CGC negative and was marked with “−”)
- CGC formation (Compound (I) 10 mg, aminoglycoside (kanamycin, gentamycin) 100 mg): + (If cell length was more than 50 μm and cell number was more than 5 in each visual field, it was deemed as CGC positive and was marked with “+”)
- CGC formation (Compound (I) 10 mg, aminoglycoside (kanamycin, gentamycin) 150 mg): + (If cell length was more than 50 μm and cell number was more than 5 in each visual field, it was deemed as CGC positive and was marked with “+”)
- CGC formation (Compound (I) 10 mg, aminoglycoside (kanamycin, gentamycin) 200 mg): + (If cell length was more than 50 μm and cell number was more than 5 in each visual field, it was deemed as CGC positive and was marked with “+”)
- CGC formation (Compound (I) 10 mg, aminoglycoside (kanamycin, gentamycin) 300 mg): + (If cell length was more than 50 μm and cell number was more than 5 in each visual field, it was deemed as CGC positive and was marked with “+”)
- CGC formation (Compound (I) 10 mg, aminoglycoside (kanamycin, gentamycin) 400 mg): + (If cell length was more than 50 μm and cell number was more than 5 in each visual field, it was deemed as CGC positive and was marked with “+”)
- CGC formation (Compound (I) 10 mg, aminoglycoside (kanamycin, gentamycin) 500 mg): + (If cell length was more than 50 μm and cell number was more than 5 in each visual field, it was deemed as CGC positive and was marked with “+”)
- CGC formation (Compound (I) 10 mg, macrolide (spiramycin) 300 mg): − (if cell length was not greater than 50 μm and cell number was within the range from 0 to 4 in each visual field, it was deemed as CGC negative and was marked with “−”)
- CGC formation (Compound (I) 10 mg, macrolide (spiramycin) 500 mg): + (If cell length was more than 50 μm and cell number was more than 5 in each visual field, it was deemed as CGC positive and was marked with “+”)
- CGC formation (Compound (I) 10 mg, macrolide (spiramycin) 700 mg): + (If cell length was more than 50 μm and cell number was more than 5 in each visual field, it was deemed as CGC positive and was marked with “+”)
- CGC formation (Compound (I) 10 mg, macrolide (spiramycin) 900 mg): + (If cell length was more than 50 μm and cell number was more than 5 in each visual field, it was deemed as CGC positive and was marked with “+”)
- CGC formation (Compound (I) 10 mg, macrolide (spiramycin) 1100 mg): + (If cell length was more than 50 μm and cell number was more than 5 in each visual field, it was deemed as CGC positive and was marked with “+”)
- CGC formation (Compound (I) 10 mg, macrolide (spiramycin) 1300 mg): + (If cell length was more than 50 μm and cell number was more than 5 in each visual field, it was deemed as CGC positive and was marked with “+”)
- CGC formation (Compound (I) 10 mg, macrolide (spiramycin) 1500 mg): + (If cell length was more than 50 μm and cell number was more than 5 in each visual field, it was deemed as CGC positive and was marked with “+”)
- CGC formation (Compound (I) 50 mg, aminoglycoside (kanamycin, gentamycin) 50 mg): − (if cell length was not greater than 50 μm and cell number was within the range from 0 to 4 in each visual field, it was deemed as CGC negative and was marked with “−”)
- CGC formation (Compound (I) 50 mg, aminoglycoside (kanamycin, gentamycin) 100 mg): − (if cell length was not greater than 50 μm and cell number was within the range from 0 to 4 in each visual field, it was deemed as CGC negative and was marked with “−”)
- CGC formation (Compound (I) 50 mg, aminoglycoside (kanamycin, gentamycin) 150 mg): + (If cell length was more than 50 μm and cell number was more than 5 in each visual field, it was deemed as CGC positive and was marked with “+”)
- CGC formation (Compound (I) 50 mg, aminoglycoside (kanamycin, gentamycin) 200 mg): + (If cell length was more than 50 μm and cell number was more than 5 in each visual field, it was deemed as CGC positive and was marked with “+”)
- CGC formation (Compound (I) 50 mg, aminoglycoside (kanamycin, gentamycin) 300 mg): + (If cell length was more than 50 μm and cell number was more than 5 in each visual field, it was deemed as CGC positive and was marked with “+”)
- CGC formation (Compound (I) 50 mg, aminoglycoside (kanamycin, gentamycin) 400 mg): + (If cell length was more than 50 μm and cell number was more than 5 in each visual field, it was deemed as CGC positive and was marked with “+”)
- CGC formation (Compound (I) 50 mg, aminoglycoside (kanamycin, gentamycin) 500 mg): + (If cell length was more than 50 μm and cell number was more than 5 in each visual field, it was deemed as CGC positive and was marked with “+”)
- CGC formation (Compound (I) 50 mg, macrolide (spiramycin) 300 mg): − (if cell length was not greater than 50 μm and cell number was within the range from 0 to 4 in each visual field, it was deemed as CGC negative and was marked with “−”)
- CGC formation (Compound (I) 50 mg, macrolide (spiramycin) 500 mg): − (if cell length was not greater than 50 μm and cell number was within the range from 0 to 4 in each visual field, it was deemed as CGC negative and was marked with “−”)
- CGC formation (Compound (I) 50 mg, macrolide (spiramycin) 700 mg): + (If cell length was more than 50 μm and cell number was more than 5 in each visual field, it was deemed as CGC positive and was marked with “+”)
- CGC formation (Compound (I) 50 mg, macrolide (spiramycin) 900 mg): + (If cell length was more than 50 μm and cell number was more than 5 in each visual field, it was deemed as CGC positive and was marked with “+”)
- CGC formation (Compound (I) 50 mg, macrolide (spiramycin) 1100 mg): + (If cell length was more than 50 μm and cell number was more than 5 in each visual field, it was deemed as CGC positive and was marked with “+”)
- CGC formation (Compound (I) 50 mg, macrolide (spiramycin) 1300 mg): + (If cell length was more than 50 μm and cell number was more than 5 in each visual field, it was deemed as CGC positive and was marked with “+”)
- CGC formation (Compound (I) 50 mg, macrolide (spiramycin) 1500 mg): + (If cell length was more than 50 μm and cell number was more than 5 in each visual field, it was deemed as CGC positive and was marked with “+”)
- CGC formation (Compound (I) 100 mg, aminoglycoside (kanamycin, gentamycin) 50 mg): − (if cell length was not greater than 50 μm and cell number was within the range from 0 to 4 in each visual field, it was deemed as CGC negative and was marked with “−”)
- CGC formation (Compound (I) 100 mg, aminoglycoside (kanamycin, gentamycin) 100 mg): − (if cell length was not greater than 50 μm and cell number was within the range from 0 to 4 in each visual field, it was deemed as CGC negative and was marked with “−”)
- CGC formation (Compound (I) 100 mg, aminoglycoside (kanamycin, gentamycin) 150 mg): − (if cell length was not greater than 50 μm and cell number was within the range from 0 to 4 in each visual field, it was deemed as CGC negative and was marked with “−”)
- CGC formation (Compound (I) 100 mg, aminoglycoside (kanamycin, gentamycin) 200 mg): + (If cell length was more than 50 μm and cell number was more than 5 in each visual field, it was deemed as CGC positive and was marked with “+”)
- CGC formation (Compound (I) 100 mg, aminoglycoside (kanamycin, gentamycin) 300 mg): + (If cell length was more than 50 μm and cell number was more than 5 in each visual field, it was deemed as CGC positive and was marked with “+”)
- CGC formation (Compound (I) 100 mg, aminoglycoside (kanamycin, gentamycin) 400 mg): + (If cell length was more than 50 μm and cell number was more than 5 in each visual field, it was deemed as CGC positive and was marked with “+”)
- CGC formation (Compound (I) 100 mg, aminoglycoside (kanamycin, gentamycin) 500 mg): + (If cell length was more than 50 μm and cell number was more than 5 in each visual field, it was deemed as CGC positive and was marked with “+”)
- CGC formation (Compound (I) 100 mg, macrolide (spiramycin) 300 mg): − (if cell length was not greater than 50 μm and cell number was within the range from 0 to 4 in each visual field, it was deemed as CGC negative and was marked with “−”)
- CGC formation (Compound (I) 100 mg, macrolide (spiramycin) 500 mg): − (if cell length was not greater than 50 μm and cell number was within the range from 0 to 4 in each visual field, it was deemed as CGC negative and was marked with “−”)
- CGC formation (Compound (I) 100 mg, macrolide (spiramycin) 700 mg): − (if cell length was not greater than 50 μm and cell number was within the range from 0 to 4 in each visual field, it was deemed as CGC negative and was marked with “−”)
- CGC formation (Compound (I) 100 mg, macrolide (spiramycin) 900 mg): + (If cell length was more than 50 μm and cell number was more than 5 in each visual field, it was deemed as CGC positive and was marked with “+”)
- CGC formation (Compound (I) 100 mg, macrolide (spiramycin) 1100 mg): + (If cell length was more than 50 μm and cell number was more than 5 in each visual field, it was deemed as CGC positive and was marked with “+”)
- CGC formation (Compound (I) 100 mg, macrolide (spiramycin) 1300 mg): + (If cell length was more than 50 μm and cell number was more than 5 in each visual field, it was deemed as CGC positive and was marked with “+”)
- CGC formation (Compound (I) 100 mg, macrolide (spiramycin) 1500 mg): + (If cell length was more than 50 μm and cell number was more than 5 in each visual field, it was deemed as CGC positive and was marked with “+”)
- CGC formation (Compound (I) 150 mg, aminoglycoside (kanamycin, gentamycin) 50 mg): − (if cell length was not greater than 50 μm and cell number was within the range from 0 to 4 in each visual field, it was deemed as CGC negative and was marked with “−”)
- CGC formation (Compound (I) 150 mg, aminoglycoside (kanamycin, gentamycin) 100 mg): − (if cell length was not greater than 50 μm and cell number was within the range from 0 to 4 in each visual field, it was deemed as CGC negative and was marked with “−”)
- CGC formation (Compound (I) 150 mg, aminoglycoside (kanamycin, gentamycin) 150 mg): − (if cell length was not greater than 50 μm and cell number was within the range from 0 to 4 in each visual field, it was deemed as CGC negative and was marked with “−”)
- CGC formation (Compound (I) 150 mg, aminoglycoside (kanamycin, gentamycin) 200 mg): − (if cell length was not greater than 50 μm and cell number was within the range from 0 to 4 in each visual field, it was deemed as CGC negative and was marked with “−”)
- CGC formation (Compound (I) 150 mg, aminoglycoside (kanamycin, gentamycin) 300 mg): + (If cell length was more than 50 μm and cell number was more than 5 in each visual field, it was deemed as CGC positive and was marked with “+”)
- CGC formation (Compound (I) 150 mg, aminoglycoside (kanamycin, gentamycin) 400 mg): + (If cell length was more than 50 μm and cell number was more than 5 in each visual field, it was deemed as CGC positive and was marked with “+”)
- CGC formation (Compound (I) 150 mg, aminoglycoside (kanamycin, gentamycin) 500 mg): + (If cell length was more than 50 μm and cell number was more than 5 in each visual field, it was deemed as CGC positive and was marked with “+”)
- CGC formation (Compound (I) 150 mg, macrolide (spiramycin) 300 mg): − (if cell length was not greater than 50 μm and cell number was within the range from 0 to 4 in each visual field, it was deemed as CGC negative and was marked with “−”)

Source: patent US20070191291A1, “Compound antibacterial drugs comprising n-acetyl-d-glucosamine” (priority 2003, published 2007)
